Reference: ChEMBL document CHEMBL3875178, “Discovery of oral-available resveratrol-caffeic acid based hybrids inhibiting acetylated and phosphorylated STAT3 protein” (Eur J Med Chem, 2016)
Calls of active or inactive are those of the source. The calls are words filed in the database; no cut-off is given here.

Legend:
[1] = test system: MDA-MB-231; assay: Induction of apoptosis in human MDA-MB-231 cells assessed as early apoptotic cells at 10 uM after 48 hrs by Annexin-V FITC/propidium iodide staining based flow cytometry (reference value: 2.6%); type: functional
[2] = test system: 4T1; assay: Antitumor activity against mouse 4T1 cells implanted in Kunming mouse assessed as tumor growth inhibition at 10 to 20 mg/kg, po qd for 14 days; type: functional, organism-based
[3] = test system: MDA-MB-231; assay: Antiproliferative activity against human MDA-MB-231 cells assessed as inhibition of colony formation after 48 hrs by crystal violet staining based assay; type: functional, cell-based
[4] = test system: MDA-MB-231; assay: Induction of apoptosis in human MDA-MB-231 cells assessed as live cells at 5 uM after 48 hrs by Annexin-V FITC/propidium iodide staining based flow cytometry (reference value: 96.1%); type: functional
[5] = target: Signal transducer and activator of transcription 3 (Homo sapiens) (UniProt P40763); assay: Inhibition of STAT3 phosphorylation at Tyr-705 residue in human MDA-MB-231 cells after 48 hrs by Western blot method; type: cell-based
Signal transducer and activator of transcription 3 (Homo sapiens), sequence (P40763 whole entry): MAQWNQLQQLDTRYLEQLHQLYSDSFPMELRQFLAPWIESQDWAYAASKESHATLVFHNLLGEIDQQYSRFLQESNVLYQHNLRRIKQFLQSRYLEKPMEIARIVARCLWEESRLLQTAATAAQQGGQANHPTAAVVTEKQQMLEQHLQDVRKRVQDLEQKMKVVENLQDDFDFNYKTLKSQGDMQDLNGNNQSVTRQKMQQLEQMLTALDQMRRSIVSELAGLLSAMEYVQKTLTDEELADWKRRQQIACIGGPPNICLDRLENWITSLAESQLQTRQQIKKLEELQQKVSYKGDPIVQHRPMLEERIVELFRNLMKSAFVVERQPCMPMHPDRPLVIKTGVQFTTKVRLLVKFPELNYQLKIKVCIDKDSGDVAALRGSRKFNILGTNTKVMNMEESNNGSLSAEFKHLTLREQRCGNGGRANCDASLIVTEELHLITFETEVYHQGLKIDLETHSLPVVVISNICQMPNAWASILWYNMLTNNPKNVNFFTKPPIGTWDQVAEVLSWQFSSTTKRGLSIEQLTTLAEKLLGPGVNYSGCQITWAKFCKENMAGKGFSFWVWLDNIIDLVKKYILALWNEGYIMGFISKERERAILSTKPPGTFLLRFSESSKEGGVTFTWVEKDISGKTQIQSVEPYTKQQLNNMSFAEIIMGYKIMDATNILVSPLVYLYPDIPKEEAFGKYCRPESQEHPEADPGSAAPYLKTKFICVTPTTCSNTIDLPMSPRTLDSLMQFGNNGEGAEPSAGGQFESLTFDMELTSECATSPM

[6] = Growth inhibition of human HT-29 cells after 48 hrs by MTT assay; type: functional, cell-based; conditions: HT-29, 48 h
[7] = Growth inhibition of human MDA-MB-231 cells after 48 hrs by MTT assay; type: functional, cell-based; conditions: MDA-MB-231, 48 h
[8] = test system: MDA-MB-231; assay: Induction of apoptosis in human MDA-MB-231 cells assessed as live cells at 8 uM after 48 hrs by Annexin-V FITC/propidium iodide staining based flow cytometry (reference value: 96.1%); type: functional
[9] = test system: MDA-MB-231; assay: Induction of apoptosis in human MDA-MB-231 cells assessed as increase in cleaved caspase-8 expression after 48 hrs by Western blot method; type: functional, cell-based
[10] = test system: MDA-MB-231; assay: Induction of apoptosis in human MDA-MB-231 cells assessed as necrotic cells at 10 uM after 48 hrs by Annexin-V FITC/propidium iodide staining based flow cytometry (reference value: 0.8%); type: functional
[11] = test system: MDA-MB-231; assay: Induction of apoptosis in human MDA-MB-231 cells assessed as late apoptotic cells at 10 uM after 48 hrs by Annexin-V FITC/propidium iodide staining based flow cytometry (reference value: 0.4%); type: functional
[12] = test system: Mus musculus; assay: In vivo inhibition of STAT3 phosphorylation at Tyr-705 residue in tumor of Kunming mouse implanted with mouse 4T1 cells at 10 to 20 mg/kg, po qd for 14 days; type: functional, organism-based
[13] = test system: MDA-MB-231; assay: Induction of apoptosis in human MDA-MB-231 cells assessed as early apoptotic cells at 1 uM after 48 hrs by Annexin-V FITC/propidium iodide staining based flow cytometry (reference value: 2.6%); type: functional
[14] = test system: MDA-MB-231; assay: Induction of apoptosis in human MDA-MB-231 cells assessed as necrotic cells at 8 uM after 48 hrs by Annexin-V FITC/propidium iodide staining based flow cytometry (reference value: 0.8%); type: functional
[15] = test system: MDA-MB-231; assay: Induction of apoptosis in human MDA-MB-231 cells assessed as early apoptotic cells at 2 uM after 48 hrs by Annexin-V FITC/propidium iodide staining based flow cytometry (reference value: 2.6%); type: functional
[16] = test system: MDA-MB-231; assay: Induction of apoptosis in human MDA-MB-231 cells assessed as live cells at 10 uM after 48 hrs by Annexin-V FITC/propidium iodide staining based flow cytometry (reference value: 96.1%); type: functional
[17] = test system: MDA-MB-231; assay: Induction of apoptosis in human MDA-MB-231 cells assessed as increase in cleaved caspase-9 expression after 48 hrs by Western blot method; type: functional, cell-based
[18] = target: Signal transducer and activator of transcription 3 (Homo sapiens) (UniProt P40763); assay: Inhibition of STAT3 acetylation at Lys-685 residue in human MDA-MB-231 cells assessed as increase in CDKN2A mRNA at 1- 10 uM expression after 48 hrs by RT-PCR method; type: cell-based
[19] = target: Signal transducer and activator of transcription 3 (Homo sapiens) (UniProt P40763); assay: Inhibition of STAT3 phosphorylation at Tyr-705 residue in human MDA-MB-231 cells assessed as decrease in Bcl2 protein expression at 1 to 5 uM after 48 hrs by Western blot method; type: cell-based
[20] = test system: MDA-MB-231; assay: Induction of apoptosis in human MDA-MB-231 cells assessed as late apoptotic cells at 1 uM after 48 hrs by Annexin-V FITC/propidium iodide staining based flow cytometry (reference value: 0.4%); type: functional
[21] = test system: MDA-MB-231; assay: Induction of apoptosis in human MDA-MB-231 cells assessed as necrotic cells at 2 uM after 48 hrs by Annexin-V FITC/propidium iodide staining based flow cytometry (reference value: 0.8%); type: functional
[22] = test system: MDA-MB-231; assay: Induction of apoptosis in human MDA-MB-231 cells assessed as early apoptotic cells at 5 uM after 48 hrs by Annexin-V FITC/propidium iodide staining based flow cytometry (reference value: 2.6%); type: functional
[23] = test system: MDA-MB-231; assay: Potency index, ratio of caffeic acid IC50 to compound IC50 for human MDA-MB-231 cells; type: functional
[24] = test system: Mus musculus; assay: Toxicity in Kunming mouse implanted with mouse 4T1 cells assessed as body weight loss at 10 to 20 mg/kg, po qd for 14 days measured during compound dosing; type: organism-based; conditions: in vivo, 336 h
[25] = test system: MDA-MB-231; assay: Induction of apoptosis in human MDA-MB-231 cells assessed as live cells at 2 uM after 48 hrs by Annexin-V FITC/propidium iodide staining based flow cytometry (reference value: 96.1%); type: functional
[26] = test system: MDA-MB-231; assay: Induction of apoptosis in human MDA-MB-231 cells assessed as necrotic cells at 1 uM after 48 hrs by Annexin-V FITC/propidium iodide staining based flow cytometry (reference value: 0.8%); type: functional
[27] = Effect on total STAT3 protein level in human MDA-MB-231 cells at 1 to 5 uM after 48 hrs by Western blot method; type: ADME, cell-based; conditions: mda-mb-231, 48 h
[28] = target: Signal transducer and activator of transcription 3 (Homo sapiens) (UniProt P40763); assay: Inhibition of STAT3 acetylation at Lys-685 residue in human MDA-MB-231 cells after 48 hrs by Western blot method; type: cell-based
[29] = target: Signal transducer and activator of transcription 3 (Homo sapiens) (UniProt P40763); assay: Inhibition of STAT3 phosphorylation at Tyr-705 residue in human MDA-MB-231 cells assessed as decrease in Bcl2 mRNA expression at 1 to 5 uM after 48 hrs by RT-PCR method; type: cell-based
[30] = target: Signal transducer and activator of transcription 3 (Homo sapiens) (UniProt P40763); assay: Inhibition of STAT3 acetylation at Lys-685 residue in human MDA-MB-231 cells assessed as increase in DLEC1 mRNA at 1- 10 uM expression after 48 hrs by RT-PCR method; type: cell-based
[31] = test system: MDA-MB-231; assay: Induction of apoptosis in human MDA-MB-231 cells assessed as late apoptotic cells at 5 uM after 48 hrs by Annexin-V FITC/propidium iodide staining based flow cytometry (reference value: 0.4%); type: functional
[32] = test system: MDA-MB-231; assay: Induction of apoptosis in human MDA-MB-231 cells assessed as necrotic cells at 5 uM after 48 hrs by Annexin-V FITC/propidium iodide staining based flow cytometry (reference value: 0.8%); type: functional
[33] = target: Signal transducer and activator of transcription 3 (Homo sapiens) (UniProt P40763); assay: Inhibition of STAT3 acetylation at Lys-685 residue in human MDA-MB-231 cells assessed as increase in PTPN6 mRNA at 1- 10 uM expression after 48 hrs by RT-PCR method; type: cell-based
[34] = target: Signal transducer and activator of transcription 3 (Homo sapiens) (UniProt P40763); assay: Inhibition of STAT3 phosphorylation at Tyr-705 residue in human MDA-MB-231 cells assessed as decrease in Cyclin D1 protein expression at 1 to 5 uM after 48 hrs by Western blot method; type: cell-based
[35] = target: Signal transducer and activator of transcription 3 (Homo sapiens) (UniProt P40763); assay: Inhibition of STAT3 phosphorylation at Tyr-705 residue in human MDA-MB-231 cells assessed as decrease in Cyclin D1 mRNA expression at 1 to 5 uM after 48 hrs by RT-PCR method; type: cell-based
[36] = test system: MDA-MB-231; assay: Induction of apoptosis in human MDA-MB-231 cells assessed as late apoptotic cells at 8 uM after 48 hrs by Annexin-V FITC/propidium iodide staining based flow cytometry (reference value: 0.4%); type: functional
[37] = test system: MDA-MB-231; assay: Induction of apoptosis in human MDA-MB-231 cells assessed as increase in cleaved caspase-3 expression after 48 hrs by Western blot method; type: functional, cell-based
[38] = test system: MDA-MB-231; assay: Induction of apoptosis in human MDA-MB-231 cells assessed as early apoptotic cells at 8 uM after 48 hrs by Annexin-V FITC/propidium iodide staining based flow cytometry (reference value: 2.6%); type: functional
[39] = test system: MDA-MB-231; assay: Induction of apoptosis in human MDA-MB-231 cells assessed as late apoptotic cells at 2 uM after 48 hrs by Annexin-V FITC/propidium iodide staining based flow cytometry (reference value: 0.4%); type: functional
[40] = test system: MDA-MB-231; assay: Potency index, ratio of resveratrol IC50 to compound IC50 for human MDA-MB-231 cells; type: functional
[41] = test system: MDA-MB-231; assay: Induction of apoptosis in human MDA-MB-231 cells assessed as live cells at 1 uM after 48 hrs by Annexin-V FITC/propidium iodide staining based flow cytometry (reference value: 96.1%); type: functional

With `COc1cc(/C=C/c2ccc(NC(=O)/C=C/c3cc(OC)c(OC)c(OC)c3)cc2)cc(OC)c1` the Activity [1] was 74.6%, the TGI [2] was “Active” and the inhibition [3] was “Dose-dependent effect”. For the same molecule, the Activity [4] was 78%, the inhibition [5] was “Dose-dependent effect” and the IC50 [6] was 1.82 µM. The IC50 [7] was 2.14 µM, the Activity [8] was 51.8% and the Activity [9] was “Active”. For the same molecule, the Activity [10] was 0.7%, the Activity [11] was 10.6% and the inhibition [12] was “Active”. For the same molecule, the Activity [13] was 7.7%, the Activity [14] was 0.6% and the Activity [15] was 9.8%. The Activity [16] was 18.5%, the Activity [17] was “Dose-dependent effect” and the inhibition [18] was “Active”. The inhibition [19] was “Active”, the Activity [20] was 1.3% and the Activity [21] was 1.3%. For the same molecule, the Activity [22] was 16.2%, the “Ratio IC50” value [23] was over 50 and the Activity [24] was “Non-Toxic”. The Activity [25] was 87.5%, the Activity [26] was 1.3% and the Activity [27] was “Non-Toxic”. The inhibition [28] was “Dose-dependent effect”, the inhibition [29] was “Active” and the inhibition [30] was “Active”. For the same molecule, the Activity [31] was 4.7%, the Activity [32] was 1.1% and the inhibition [33] was “Active”. For the same molecule, the inhibition [34] was “Active”, the inhibition [35] was “Active” and the Activity [36] was 6.2%. The Activity [37] was “Dose-dependent effect”, the Activity [38] was 37.1% and the Activity [39] was 1.4%. The “Ratio IC50” value [40] was over 50 and the Activity [41] was 89.7%.
